Test results as given in paper PMC8100298, “Histone deacetylase inhibitor resminostat in combination with sorafenib counteracts platelet-mediated pro-tumoral effects in hepatocellular carcinoma” (Scientific Reports, 2021).
pEC50: −log10 of the molar value. Like-named read-outs stand apart in the source and are kept apart here.

What was measured:
Assay in all cases: Efficacy screening assay
Assay type in all cases: cell-based
CALU6 = conditions: CALU6, lung; for pEC50: read-out: EC50
Experimental: (§1) The experiment was performed by Oncolead GmbH & Co. KG (Karlsfeld , Germany), based on a standardized screening procedure . Cell lines were purchased directly from the ATCC, NCI and DSMZ cell line c ollections. Cells used for the study had undergone less than 20 passages. To ensure the absence of potential contamination and wrong assignment, all cell lines were tested using a whole genome assay (Agilent, USA). All cell lines were grown as recommended by the suppliers and with addition of 100 U/mL penicillin G and 100 µg/mL; streptomycin. Cell growth and treatments were performed in Nunclon D 96 -well plates (NUNC, Germany). The optimal seeding density for each cell line was determined to ensure exponential growth for the duration of the experiment. All cells growing without anti-cancer agents were sub-conﬂuent by the end of the treatment, as determined by visual inspection.
(§2) After an initial 24 h pre-growth period, the compounds were added. The vehicle concentration […]
(§3) was 0.1% DMSO. After incubation at 37°C for 72 h, the culture medium was aspirated, and the cells were precipitated by the addition of 10% trichloroacetic acid (Sigma-Aldrich, Missouri, US). After overnight incubation at 4°C, the plates were washed three times with deionized water. The precipitates were then stained with SRB (0.4% wt/v sulforhodamine B solution in 1% acetic acid, Sigma-Aldrich, Missouri, US). Afterwards, the plates were washed six times with 1% acetic acid to remove unbound stain. After drying the plates at room temperature, the bound SRB was solubilized with 10 mM Tris base and the optical density was measured at 520 nm using a Victor2 plate reader (Perkin Elmer, Germany). Blank OD values were subtracted from mean OD values for each concentration. The nonlinear curve ﬁtting and EC50 calculations were per formed using XLﬁt and algorithm “205” (ID Business […]
(§4) For comparison of EC50 values in Figure 1F, one-way ANOVA with multiple comparison testing (Tukey) was performed. Multiplicity adjusted p -values for the EC50 with sorafenib versus resminostat for each cell line and comparison between cell lines for sorafenib are presented (95% confidence interval for significance testing). For comparison of EC50 data in Figure 2B, one-way ANOVA with multiple comparison testing (Tukey) was performed. Multiplicity adjusted p-values with 95% confidence interval was applied. For the invasion assays in Figure 4, one-way ANOVA with multiple comparison testing (Tukey) was performed. Multiplicity adjusted p-values with 95% confidence interval was applied. The adjusted p-values comparing vehicle control without vs. with platelets and compound

CASKI = conditions: 72 h, cervix; for pEC50: read-out: EC50
Experimental: as §1, §2, §3, §4

CLS439 = system: CLS439
Experimental: as §1, §2, §3, §4

EFO21 = conditions: EFO21, ovary; for pEC50: read-out: EC50
Experimental: as §1, §2, §3, §4

HCT15 = conditions: HCT15, colon; for pEC50: read-out: EC50
Experimental: as §1, §2, §3, §4

HELA = conditions: 72 h, cervix; for pEC50: read-out: EC50
Experimental: as §1, §2, §3, §4

MT3 = conditions: MT3, breast; for pEC50: read-out: EC50
Experimental: as §1, §2, §3, §4

NCIH358M = conditions: 72 h, lung; for pEC50: read-out: EC50
Experimental: as §1, §2, §3, §4

NCIH460 = conditions: NCIH460, lung; for pEC50: read-out: EC50
Experimental: as §1, §2, §3, §4

PANC1005 = conditions: PANC1005, pancreas; for pEC50: read-out: EC50
Experimental: as §1, §2, §3, §4

PANC1 = conditions: PANC1, pancreas; for pEC50: read-out: EC50
Experimental: as §1, §2, §3, §4

PLCPRF5 = conditions: Homo sapiens, PLC-PRF-5, PLCPRF5, liver, 72 h
Experimental: as §1, §2, §3, §4

RD = conditions: 72 h, muscle; for pEC50: read-out: EC50
Experimental: as §1, §2, §3, §4

SF268 = conditions: SF268, brain; for pEC50: read-out: EC50
Experimental: as §1, §2, §3, §4

SKNAS = conditions: 72 h, brain; for pEC50: read-out: EC50
Experimental: as §1, §2, §3, §4

U2OS = conditions: 72 h, bone; for pEC50: read-out: EC50
Experimental: as §1, §2, §3, §4

UMUC3 = conditions: UMUC3, bladder; for pEC50: read-out: EC50
Experimental: as §1, §2, §3, §4

[1] = Homo sapiens, log of EC50, negative, read-out: log(EC50) (converted)

CN(C)Cc1ccc(S(=O)(=O)n2ccc(/C=C/C(=O)NO)c2)cc1 [resminostat, Resminostat]
pEC50 (CALU6; 72 h): 5.53
EC50 (CALU6; Homo sapiens, Calu-6, 72 h, log of EC50, negative, read-out: log(EC50) (converted)): 2.95 µM
pEC50 (CALU6; Homo sapiens, Calu-6, 72 h): 5.53
EC50 (CASKI; Homo sapiens, Ca-Ski, log of EC50, negative, read-out: log(EC50) (converted)): 2.63 µM
pEC50 (CASKI; Homo sapiens, Ca-Ski): 5.58
pEC50 (CASKI): 5.58
EC50 (CLS439; 72 h, CLS439, bladder, log of EC50, negative, read-out: log(EC50) (converted)): 0.776 µM
pEC50 (CLS439; 72 h, CLS439, bladder, read-out: EC50): 6.11
pEC50 (CLS439; CLS439, bladder; 72 h; read-out: EC50): 6.11
pEC50 (EFO21; 72 h): 5.14
EC50 (EFO21; Homo sapiens, EFO-21, 72 h, log of EC50, negative, read-out: log(EC50) (converted)): 7.24 µM
pEC50 (EFO21; Homo sapiens, EFO-21, 72 h): 5.14
pEC50 (HCT15; 72 h): 5.68
EC50 (HCT15; Homo sapiens, HCT-15, 72 h, log of EC50, negative, read-out: log(EC50) (converted)): 2.09 µM
pEC50 (HCT15; Homo sapiens, HCT-15, 72 h): 5.68
EC50 (HELA; Homo sapiens, HeLa, log of EC50, negative, read-out: log(EC50) (converted)): 3.31 µM
pEC50 (HELA; Homo sapiens, HeLa): 5.48
pEC50 (HELA): 5.48
pEC50 (MT3; 72 h): 5.72
EC50 (MT3; MT-3, 72 h, log of EC50, negative, read-out: log(EC50) (converted)): 1.91 µM
pEC50 (MT3; MT-3, 72 h): 5.72
EC50 (NCIH358M; NCI-H358M, log of EC50, negative, read-out: log(EC50) (converted)): 4.37 µM
pEC50 (NCIH358M; NCI-H358M): 5.36
pEC50 (NCIH358M): 5.36
EC50 (NCIH460; Homo sapiens, NCI-H460, 72 h, log of EC50, negative, read-out: log(EC50) (converted)): 2.14 µM
pEC50 (NCIH460; Homo sapiens, NCI-H460, 72 h): 5.67
pEC50 (NCIH460; 72 h): 5.67
EC50 (PANC1005; Homo sapiens, Panc1005, 72 h, log of EC50, negative, read-out: log(EC50) (converted)): 5.75 µM
pEC50 (PANC1005; Homo sapiens, Panc1005, 72 h): 5.24
pEC50 (PANC1005; 72 h): 5.24
EC50 (PANC1; Homo sapiens, PANC-1, 72 h, log of EC50, negative, read-out: log(EC50) (converted)): 6.76 µM
pEC50 (PANC1; Homo sapiens, PANC-1, 72 h): 5.17
pEC50 (PANC1; 72 h): 5.17
EC50 (PLCPRF5; log of EC50, negative, read-out: log(EC50) (converted)): 3.39 µM
pEC50 (PLCPRF5; read-out: EC50): 5.47
EC50 (RD; [1]): 1.55 µM
pEC50 (RD; Homo sapiens): 5.82
pEC50 (RD): 5.82
EC50 (SF268; Homo sapiens, SF-268, 72 h, log of EC50, negative, read-out: log(EC50) (converted)): 2.19 µM
pEC50 (SF268; Homo sapiens, SF-268, 72 h): 5.66
pEC50 (SF268; 72 h): 5.66
EC50 (SKNAS; Homo sapiens, SK-N-AS, log of EC50, negative, read-out: log(EC50) (converted)): 3.55 µM
pEC50 (SKNAS; Homo sapiens, SK-N-AS): 5.45
pEC50 (SKNAS): 5.45
EC50 (U2OS; [1]): 1.17 µM
pEC50 (U2OS; Homo sapiens): 5.93
pEC50 (U2OS): 5.94
EC50 (UMUC3; Homo sapiens, UMUC3, 72 h, log of EC50, negative, read-out: log(EC50) (converted)): 3.24 µM
pEC50 (UMUC3; Homo sapiens, UMUC3, 72 h): 5.49
pEC50 (UMUC3; 72 h): 5.49
